*1 amine or outer side, *2 acyl side, *3 side chain or, on linkers, in order; H or OH if unused. Where a SMILES comes first, the peptide text is derived from it. [ ]: non-standard residue; d: D form. The star is where a group is joined. Dhc(Pam)2 = S-[2,3-bis(hexadecanoyloxy)-(2S)-propyl]-(R)-cysteine, CCCCCCCCCCCCCCCC(=O)OC[C@@H](CSC[C@H](N[*:1])C(=O)[*:2])OC(=O)CCCCCCCCCCCCCCC; Propyl(2R-PamO,3-PamO) = CCCCCCCCCCCCCCCC(=O)OC[C@H](C*)OC(=O)CCCCCCCCCCCCCCC; Palmitoyl = CCCCCCCCCCCCCCCC(=O)*; Myristoyl = CCCCCCCCCCCCCC(=O)*

Data set [1] has as its system mice. Briefly: acute toxicity test to mice. The class given is in vivo, mouse. The conditions noted are these: intraperitoneal administration, dose of 400 mg/kg. As for the experimental part:
No mouse administered intraperitoneally with Pam-Dhc(Pam)2 -Gly-Gly-Gly-Glu-Thr-Thr-OH (Compound 1) (SEQ ID No. 89) at a dose of 400 mg/kg was found dead.

The test system of data set [2] is spleen cells of mice. Description: number of spleen cells in cyclophosphamide-treated mice (Experimental Example 2). It counts as in vivo, BALB/c mouse. Particulars: cyclophosphamide singly, 250 mg/kg i.p.; saline/2% gum arabic mice = 100%. How it is done:
(§1) A BALB/c mouse was injected intraperitoneally with cyclophosphamide dissolved in physiological saline solution at a dose of 250 mg/kg. From the next day, the animal was administered intraperitoneally for 3 consecutive days with TAN-1511 complex suspended in physiological saline solution containing 2% gum arabic at a dose of 2 mg/kg/day. On the day following completion of the administration, number of trypan blue chromophobic cells of spleen and peritoneal cavity was counted.

For data set [3], the system named is peritoneal cavity cells of mice. Briefly: number of peritoneal cavity cells in cyclophosphamide-treated mice (Experimental Example 2). The class given is in vivo, BALB/c mouse. The conditions noted are these: cyclophosphamide singly, 250 mg/kg i.p.; saline/2% gum arabic mice = 100%. As for the experimental part:
as §1

Data set [4] deals with spleen cells of mice. Briefly: number of spleen cells in cyclophosphamide-treated mice (Experimental Example 4). The class given is in vivo, BALB/c mouse. Particulars: cyclophosphamide singly, 200 mg/kg i.p.; saline/2% gum arabic mouse = 100%. As for the experimental part: A BALB/c mouse was injected intraperitoneally with cyclophosphamide dissolved in physiological saline solution at a dose of 200 mg/kg. From the day after next, the animal was administered intraperitoneally for 4 consecutive days with the test compound suspended in physiological saline solution containing 2% gum arabic. On the day following completion of the administration, number of trypan blue chromophobic cells of spleen was counted.

Data set [5] has as its system leukocytes of peripheral blood. Briefly: enhancing the number of leukocytes in cyclophosphamide-treated mice. It counts as in vivo, CDF1/Crj mice. Particulars: cyclophosphamide 150 mg/kg orally, then 5% glucose s.c. for 5 days; mice without cyclophosphamide = 100%.
Method: Six week old female CDF1/Crj mice (5animals/group) were subjected to the experiment. […] From the next day, each animal was administered subcutaneously with the compound suspended in 5% glucose at the following dosages for five days once a day. On the next day after completion of the administration, about 100 μl of peripheral blood was collected from orbital vein using an EDTA-treated glass capillary. Then, the number of leukocytes was counted using a automatic cell analyzer (Sysmex K-2000, Toa Medical Electronics, Japan)

Turning to `CCCCCCCCCCCCCCCC(=O)OC[C@H](CSC[C@H](NC(=O)CCCCCCCCCCCCC)C(=O)NCC(=O)NCC(=O)NCC(=O)N[C@@H](CCC(=O)O)C(=O)N[C@H](C(=O)N[C@H](C(=O)O)[C@@H](C)O)[C@@H](C)O)OC(=O)CCCCCCCCCCCCCCC` [Compound 9, (2R,6R)-2-Myr-amino-6,7-bis(PamO)-4-THT-Gly-Gly-Gly-Glu-Thr-Thr-OH] (Myristoyl-C(Propyl(2R-PamO,3-PamO))GGGETT-OH), the “mice found dead / killed” value in data set [1] was “No mouse was killed”.

`O=P1(N(CCCl)CCCl)NCCCO1` (stereo not drawn) [Cyclophosphamide]: the “Number of spleen cells (%)” value in data set [2] came to 11.8%. Moreover, the “Number of peritoneal cavity cells (%)” value in data set [3] was 27.7%. Besides, the “Number of abdominal cavity cells (%)” value in data set [4] is reported as 33.4%. Further, the “average value and standard deviation of leukocyte numbers” value in data set [5] came out at 41±11%.

Turning to “Pam-Dhc(Pam)2 -Gly-Gly-Gly-Glu-Thr-Thr-OH (Palmitoyl-[Dhc(Pam)2]GGGETT-OH; SMILES CCCCCCCCCCCCCCCC(=O)N[C@@H](CSC[C@H](COC(=O)CCCCCCCCCCCCCCC)OC(=O)CCCCCCCCCCCCCCC)C(=O)NCC(=O)NCC(=O)NCC(=O)N[C@@H](CCC(=O)O)C(=O)N[C@H](C(=O)N[C@H](C(=O)O)[C@@H](C)O)[C@@H](C)O) [Compound 1]”, in data set [1], the “mice found dead / killed” value is “No mouse”.

(Values after patent publication US5478809A, “TAN-1511, its derivatives, production and use thereof” (Takeda Chemical Industries, Ltd., priority 1992, dated 1995).)
